Reference: patent publication US5478854A, “Deoxy taxols” (Bristol-Myers Squibb Company, priority 1994, dated 1995)
Read-outs that look alike come from different tables or passages of the source.

Legend:
[1] = test system: human colon carcinoma cells HCT-116/VM46; assay: In vitro cytotoxicity (XTT assay), 72 h, HCT-116/VM46 multi-drug resistant cells; assay type: cell-based; settings: for IC50: Homo sapiens, read-out: IC50, drug concentration required to inhibit cell proliferation to 50% of untreated control
[2] = test system: human colon carcinoma cells HCT-116; assay: In vitro cytotoxicity (XTT assay), 72 h, HCT-116 human colon carcinoma cells; assay type: cell-based; settings: read-out: IC50, drug concentration required to inhibit cell proliferation to 50% of untreated control
[3] = test system: advanced cases of ovarian, breast, and other cancers; settings: NCI trials; cited from earlier work
[4] = HCT-116/VM46 vs HCT-116, value in parentheses, 4320 min
[5] = HCT-116/VM46 (teniposide-selected, multi-drug resistant), XTT, 72 h

Structure (SMILES)	fold resistance relative to HCT116 cells [1, 4] [fold]	IC50 [1, 5] [nM]	IC50 ([2]; HCT-116, XTT, 72 h) [nM]	IC50 ([2]; HCT-116, 72 h) [nM]	IC50 ([1]; HCT-116/VM46, 72 h) [nM]	fold resistance relative to HCT116 cells ([1]; human, hct-116/vm46 vs hct-116, 4320 min) [fold]	clinical results in advanced cancers (in words) [3]
CC(=O)O[C@H]1C(=O)[C@]2(C)CC[C@H]3OC[C@@]3(OC(C)=O)[C@H]2[C@H](OC(=O)c2ccccc2)[C@]2(O)C[C@H](OC(=O)[C@H](O)[C@@H](NC(=O)OC(C)(C)C)c3ccccc3)C(C)=C1C2(C)C [Ia, N-Debenzoyl-N-t-butoxycarbonyl-7-deoxytaxol]	3.5	7	2	–	–	–	–
CC(=O)O[C@H]1C(=O)[C@]2(C)CC[C@H]3OC[C@@]3(OC(C)=O)[C@H]2[C@H](OC(=O)c2ccccc2)[C@]2(O)C[C@H](OC(=O)[C@H](O)[C@@H](NC(=O)c3ccccc3)c3ccccc3)C(C)=C1C2(C)C [Ib, 7-Deoxytaxol]	14	55	4	–	–	–	–
CC(=O)O[C@@]12CO[C@@H]1CC[C@@]1(C)C(=O)CC3=C(C)[C@@H](OC(=O)[C@H](O)[C@@H](NC(=O)OC(C)(C)C)c4ccccc4)C[C@@](O)([C@@H](OC(=O)c4ccccc4)[C@H]21)C3(C)C [Ic, N-Debenzoyl-N-t-butoxycarbonyl-7-deoxy-10-deoxy-10-desacetyloxytaxol]	–	–	–	12	–	–	–
CC(=O)O[C@@]12CO[C@@H]1CC[C@@]1(C)C(=O)CC3=C(C)[C@@H](OC(=O)[C@H](O)[C@@H](NC(=O)c4ccccc4)c4ccccc4)C[C@@](O)([C@@H](OC(=O)c4ccccc4)[C@H]21)C3(C)C [Id, 7-Deoxy-10-desacetyloxytaxol]	–	–	–	29	–	–	–
CC(=O)O[C@H]1C(=O)[C@@]2(C)[C@H]([C@H](OC(=O)c3ccccc3)[C@]3(O)C[C@H](OC(=O)[C@H](O)[C@@H](NC(=O)c4ccccc4)c4ccccc4)C(C)=C1C3(C)C)[C@]1(OC(C)=O)CO[C@@H]1C[C@@H]2O [Taxol]	–	–	–	4	440	124	promising results
CC(=O)O[C@@]12CO[C@@H]1C[C@H](O)[C@@]1(C)C(=O)[C@H](O)C3=C(C)[C@@H](OC(=O)[C@H](O)[C@@H](NC(=O)OC(C)(C)C)c4ccccc4)C[C@@](O)([C@@H](OC(=O)c4ccccc4)[C@H]21)C3(C)C [taxotere, reference compound]	53	213	4	–	–	–	–
